Reference: patent publication US10905679B2, “TRPM8 receptor agonist compounds and uses thereof” (UNIVERSIDAD MIGUEL HERNANDEZ DE ELCHE, priority 2016, dated 2021)

Tests used:
TRPM8 = target: T1, TRPM8 (Homo sapiens, UniProt Q7Z2W7); assay: Ca2+ fluorimetry assay in CHO cell line stably expressing TRPM8; type: cell-based; settings: CHO cells stably expressing TRPM8
T1 construct: expressed in transfected cells
Method: The cells were cultured in monolayer in EMEM medium (Earle's minimum essential medium with Earle's salts, Invitrogen) supplemented with 10% foetal bovine serum (FBS), 2 mM L-glutamine, 1% penicillin-streptomycin solution and […] of the Geneticin antibiotic (Sigma) and kept at 37° C. in a humidified atmosphere with 5% of CO2. Ca^2+ fluorimetry assays were carried out in order to determine the efficacy of the compounds on the TRPM8 channels. The cells were seeded in 96-well plates with a density of 25,000 cells per well. Three days after seeding, the medium was removed and 100 μl of the Fluo-4NW fluorescent probe from Invitrogen was added with a concentration of 5 μM in the presence of 0.02% pluronic acid; after 60 minutes of incubation at 37° C. in a humidified atmosphere with 5% of CO2, the fluorescence was measured in a microplate reader (POLARstar Omega) with a configuration of 485 nm for the excitation and 520 nm for the emission, during 20 cycles. […] In the wells that were used as negative controls, 1 μl of AMTB [N-(3-aminopropyl)-2-[(3-methylphenyl)methoxy]-N-(2-thienylmethyl)benzamide] was added to obtain a final concentration of 10 μM, to block the TRPM8 channels.
The amplitudes of the Ca^2+ increases, caused by the stimulation of the cells with the compounds, were measured by subtracting the basal fluorescence signal (mean intensity obtained before adding the compound) from the fluorescence peak obtained after applying the compounds. The obtained results were adjusted to a sigmoid function using the software suite of the GraphPad Prism computer program.

[1] = system: TRPM8, TRPV1 and TRPA1 channels; assay: Specificity by Ca2+ fluorescence microscopy in mouse dorsal root ganglion (DRG) neurons; type: cell-based; settings: Fluo-4 AM fluorescence, FIG. 1
Method: Neurons obtained from a mouse dorsal root ganglion (DRG) were used to determine the specificity of the TZM-7 compound. These cells constitutively express the TRPM8, TRPV1 and TRPA1 channels, among others (the TRPV1 and TRPA1 channels are channels of the same family as the TRPM8 channel and are permeable to calcium). The intracellular Ca^2+ concentration was measured using fluorescence microscopy in order to view the activity of these channels. The cells were seeded with a density of 250,000 cells/well on round glass cover slips (18 mm diameter, […]) in 12-well plates (Costar) and cultured in Pure-EMEM during 3 days immediately before the Ca^2+ experiments. […] The cells that were not sensitive to the application of high potassium concentration were not analysed. […] The fluorescence measurements were taken using an Axiovert 200 inverted microscope from Zeiss (Oberkochen, Germany) coupled with an ORCA-ER CCD camera (Hamamatsu Photonics, Bridgewater, N.J.) and observed through a 10× magnification air lens. The Fluo-4 AM fluorescent probe was excited at 500 nm using a Lambda-10-2 filter wheel (Sutter Instruments, Novato, Calif.) and the emission fluorescence was filtered with a 535 nm longpass filter. […]

guinea pig = assay: In vivo tear secretion measured using phenol red threads after ocular instillation; settings: 10 μM, phenol red thread 30 seconds, p<0.05, comparable to menthol at 200 μM, FIG. 2
Description: The in vivo activity of the selected TRPM8 activating compounds (TZM-7) has been assessed in an animal model following the protocol described in Acosta M C et al., Invest Ophthalmol Vis Sci 2014 (Corneal sensory nerve activity in an experimental model of UV keratitis. Acosta M et al., Invest Ophthalmol Vis Sci May 1; 55(6):3403-12). […] Tear secretion can be measured using phenol red threads (Zone-Quick, Menicon, Nagoya, Japan) that are applied to the nasal edge of the lower eyelid for 30 seconds (after that time, the distance of the red-dyed thread is measured in mm).

T1 sequence (Q7Z2W7 whole entry): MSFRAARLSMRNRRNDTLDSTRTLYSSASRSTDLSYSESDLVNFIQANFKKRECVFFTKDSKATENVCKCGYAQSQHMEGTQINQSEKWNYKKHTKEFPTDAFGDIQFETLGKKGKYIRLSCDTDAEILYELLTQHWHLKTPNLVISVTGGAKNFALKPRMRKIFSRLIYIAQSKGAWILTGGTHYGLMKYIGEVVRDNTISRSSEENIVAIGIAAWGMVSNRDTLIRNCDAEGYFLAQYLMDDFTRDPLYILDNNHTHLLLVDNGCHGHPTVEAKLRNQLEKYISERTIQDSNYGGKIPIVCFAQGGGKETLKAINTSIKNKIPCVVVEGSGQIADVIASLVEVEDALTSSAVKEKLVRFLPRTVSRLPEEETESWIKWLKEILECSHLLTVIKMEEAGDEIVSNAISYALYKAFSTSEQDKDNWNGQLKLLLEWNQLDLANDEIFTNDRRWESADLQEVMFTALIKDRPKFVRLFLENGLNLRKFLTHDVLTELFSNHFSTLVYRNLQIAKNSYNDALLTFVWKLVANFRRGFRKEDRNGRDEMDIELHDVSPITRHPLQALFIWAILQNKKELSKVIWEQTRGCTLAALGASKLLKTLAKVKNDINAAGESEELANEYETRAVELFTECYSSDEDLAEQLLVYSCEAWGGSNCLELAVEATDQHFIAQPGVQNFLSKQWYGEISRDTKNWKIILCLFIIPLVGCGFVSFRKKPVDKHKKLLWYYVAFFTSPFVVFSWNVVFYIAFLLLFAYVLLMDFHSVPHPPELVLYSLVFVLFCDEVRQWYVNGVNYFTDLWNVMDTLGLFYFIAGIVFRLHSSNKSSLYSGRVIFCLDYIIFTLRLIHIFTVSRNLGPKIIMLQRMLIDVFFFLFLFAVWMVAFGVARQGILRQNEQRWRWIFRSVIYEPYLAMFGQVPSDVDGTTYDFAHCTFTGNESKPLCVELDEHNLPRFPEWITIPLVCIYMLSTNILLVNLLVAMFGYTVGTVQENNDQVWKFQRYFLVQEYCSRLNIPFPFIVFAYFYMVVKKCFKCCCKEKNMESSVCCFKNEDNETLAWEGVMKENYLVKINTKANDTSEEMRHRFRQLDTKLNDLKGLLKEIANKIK

activation at 10 µM (TRPM8; 10 μM, Fluo-4NW fluorescence): 78.5 ± 30.6%
EC50 (TRPM8; concentrations 0.1, 1, 10 and 100 μM, sigmoid fit): 2.91 ± 0.21 µM
SMILES: COc1cc(OC)cc(-c2cn([C@@H]3C[C@H](C)CC[C@H]3C(C)C)nn2)c1 [TZM-7, 4-(3,5-dimethoxyphenyl)-1-((1R,2S,5R)-2-isopropyl-5-methylcyclohexyl)-1H-1,2,3-triazole]
specificity to activate TRPM8 channels compared with other channels (TRPV1 and TRPA1) [1]: high specificity
rate of lachrymation (tear secretion) (guinea pig): significantly increases the rate of lachrymation
